How the values were obtained:
Experiment in all cases: relative viability (nuclei count vs DMSO), 5 days (fraction); higher = more cells survive
Mirin + Pictilisib = compound: N=C1NC(=O)/C(=C/c2ccc(O)cc2)S1 [Mirin] + CS(=O)(=O)N1CCN(Cc2cc3nc(-c4cccc5[nH]ncc45)nc(N4CCOCC4)c3s2)CC1 [Pictilisib] (partner 1 µM)
Method in brief: (§1)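 Relative viability equals treated-well nuclei counts divided by vehicle-well nuclei counts. Counts came from 4× images of lung cancer cell lines grown in 1536-well plates for 5 days after pin-tool dosing on the day after seeding. Dosing used one drug alone or a fixed anchor-drug dose plus five library-drug doses (not always all listed) in √10 steps, and values are medians of duplicate plates.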

Mirin + Olaparib = compound: N=C1NC(=O)/C(=C/c2ccc(O)cc2)S1 [Mirin] + O=C(c1cc(Cc2n[nH]c(=O)c3ccccc23)ccc1F)N1CCN(C(=O)C2CC2)CC1 [Olaparib] (partner 8 µM)
Method in brief: as §1

[1] = compound: CCn1c(-c2nonc2N)nc2cnc(Oc3cccc(NC(=O)c4ccc(OCCN5CCOCC5)cc4)c3)cc21 + O=C(c1cc(Cc2n[nH]c(=O)c3ccccc23)ccc1F)N1CCN(C(=O)C2CC2)CC1 [Olaparib] (partner 8 µM)
Method in brief: as §1

[2] = compound: CCn1c(-c2nonc2N)nc2cnc(Oc3cccc(NC(=O)c4ccc(OCCN5CCOCC5)cc4)c3)cc21 + COc1cccc2cc(-c3nc([C@H]4CC[C@H](C(=O)O)CC4)n4ncnc(N)c34)[nH]c12 [OSI-027] (partner 0.5 µM)
Method in brief: as §1

Cell Line | relative viability (Mirin + Pictilisib; first compound 0.25 µM) | relative viability (Mirin + Pictilisib; first compound 0.7906 µM) | relative viability (Mirin + Pictilisib; first compound 2.5 µM) | relative viability (Mirin + Pictilisib; first compound 7.906 µM) | relative viability (Mirin + Pictilisib; first compound 25 µM) | relative viability (Mirin + Olaparib; first compound 0.25 µM) | relative viability (Mirin + Olaparib; first compound 0.7906 µM) | relative viability (Mirin + Olaparib; first compound 2.5 µM) | relative viability (Mirin + Olaparib; first compound 7.906 µM) | relative viability (Mirin + Olaparib; first compound 25 µM) | relative viability ([1]; first compound 0.04 µM) | relative viability ([1]; first compound 0.1265 µM) | relative viability ([1]; first compound 0.4 µM) | relative viability ([1]; first compound 1.265 µM) | relative viability ([1]; first compound 4 µM) | relative viability ([2]; first compound 0.04 µM) | relative viability ([2]; first compound 0.1265 µM) | relative viability ([2]; first compound 0.4 µM) | relative viability ([2]; first compound 1.265 µM) | relative viability ([2]; first compound 4 µM)
NCI-H2347 | 0.564 | 0.622 | 1.71 | 0.749 | 0.595 | 0.639 | 0.639 | 0.602 | 0.612 | 0.588 | 0.549 | 0.587 | 0.824 | 0.383 | 0.448 | 0.502 | 0.505 | 0.426 | 0.334 | 0.333
NCI-H1993 | 0.748 | 0.698 | 0.893 | 0.818 | 0.782 | 1.07 | 1.07 | 1.12 | 0.932 | 0.962 | 1.06 | 1 | 1.06 | 1.13 | 0.849 | 0.612 | 0.624 | 0.573 | 0.569 | 0.539
HCC-827 | 1.16 | 1.08 | 1.04 | 1.03 | 1.21 | 0.627 | 0.704 | 0.647 | 0.626 | 0.623 | 0.686 | 0.693 | 0.698 | 0.501 | 0.509 | 0.961 | 0.855 | 0.78 | 0.707 | 0.756
NCI-H661 | – | 0.329 | 0.499 | – | 0.332 | 0.713 | 0.759 | 0.712 | 0.707 | 0.655 | 0.693 | 0.757 | 0.749 | 0.579 | 0.489 | 0.562 | 0.593 | 0.445 | 0.467 | 0.33
CAL-12T | 0.535 | – | 0.561 | – | 0.368 | 0.733 | 0.821 | 0.668 | 0.658 | 0.531 | 0.825 | 0.795 | 0.73 | 0.635 | 0.539 | 0.857 | 0.826 | 0.43 | 0.603 | 0.469
PC-14 | 0.658 | 0.568 | 0.68 | 0.797 | 0.933 | 0.25 | 0.34 | 0.313 | 0.308 | 0.271 | 0.27 | 0.206 | 0.287 | 0.309 | 0.326 | 0.796 | 0.693 | 0.586 | 0.715 | 0.685
NCI-H23 | 0.483 | – | 0.385 | 0.367 | 0.373 | 0.317 | – | 0.342 | 0.248 | 0.377 | 0.33 | 0.3 | 0.359 | 0.253 | 0.177 | 0.614 | 0.768 | 0.249 | 0.534 | 0.525
SK-LU-1 | 0.742 | 0.555 | 0.588 | 0.464 | 0.328 | 0.5 | 0.532 | 0.449 | 0.357 | 0.425 | 0.571 | 0.305 | 0.327 | 0.235 | 0.257 | 0.359 | 0.322 | 0.216 | 0.199 | 0.22
NCI-H727 | 0.353 | 0.443 | 0.458 | 0.501 | 0.515 | 0.728 | 0.6 | 0.768 | 0.602 | 0.561 | – | 0.801 | 0.657 | 0.487 | 0.59 | 1.01 | 0.924 | 0.441 | 0.612 | 0.818
HCC-366 | 0.169 | 0.17 | 0.158 | 0.122 | 0.0892 | 0.377 | 0.376 | 0.346 | 0.426 | 0.335 | 0.334 | 0.303 | 0.416 | 0.0675 | 0.0475 | 1.21 | 0.939 | 0.203 | 0.0538 | 0.0491
SW 1573 | 0.473 | – | 0.466 | 0.355 | 0.289 | 0.481 | 0.408 | 0.46 | 0.37 | 0.271 | 0.594 | 0.4 | 0.287 | 0.24 | 0.183 | 0.835 | 0.594 | 0.299 | 0.326 | 0.237
HCC-44 | 0.7 | 0.819 | 0.602 | 0.541 | 0.474 | 0.99 | 1.11 | 0.97 | 0.964 | 1.1 | 1.07 | 0.996 | 0.945 | 0.999 | 0.802 | 0.533 | 0.423 | 0.175 | 0.111 | 0.225
A-427 | 0.749 | – | 0.821 | 0.603 | 0.783 | 0.769 | 0.682 | 0.631 | 0.766 | 0.766 | 0.704 | 0.685 | 0.601 | 0.198 | 0.264 | 0.585 | 0.545 | 0.328 | 0.411 | 0.352
NCI-H441 | 0.531 | 0.521 | 0.528 | 0.37 | 0.362 | 0.468 | 0.582 | 0.674 | 0.412 | 0.401 | 0.74 | 0.589 | 0.454 | 0.439 | 0.394 | 0.772 | 0.721 | – | 0.513 | 0.472
ABC-1 | 0.923 | 0.501 | 0.753 | 0.695 | 0.302 | 0.887 | 0.618 | 0.78 | 0.593 | 0.41 | 0.632 | 0.589 | 0.74 | 0.386 | 0.458 | 0.492 | 0.751 | 0.272 | 0.418 | 0.3
LK-2 | 0.387 | – | 0.537 | 0.271 | 0.222 | 0.629 | 0.454 | 0.695 | 0.489 | 0.546 | 1.13 | 0.745 | 0.367 | 0.326 | 0.555 | 0.201 | 0.225 | 0.18 | 0.196 | 0.206
NCI-H2023 | 0.252 | 0.258 | 0.19 | 0.29 | 0.214 | 0.496 | 0.506 | 0.454 | 0.459 | 0.416 | 0.472 | 0.438 | 0.408 | 0.264 | 0.245 | 0.497 | 0.47 | 0.261 | 0.299 | 0.269
